Results taken from article PMC3739791, “Sonic Hedgehog-Induced Histone Deacetylase Activation Is Required for Cerebellar Granule Precursor Hyperplasia in Medulloblastoma” (PLoS ONE, 2013).

Biological target: T1, HDAC6 (Mus musculus, UniProt Q9Z2V5)
T1 sequence (Q9Z2V5 1-1149): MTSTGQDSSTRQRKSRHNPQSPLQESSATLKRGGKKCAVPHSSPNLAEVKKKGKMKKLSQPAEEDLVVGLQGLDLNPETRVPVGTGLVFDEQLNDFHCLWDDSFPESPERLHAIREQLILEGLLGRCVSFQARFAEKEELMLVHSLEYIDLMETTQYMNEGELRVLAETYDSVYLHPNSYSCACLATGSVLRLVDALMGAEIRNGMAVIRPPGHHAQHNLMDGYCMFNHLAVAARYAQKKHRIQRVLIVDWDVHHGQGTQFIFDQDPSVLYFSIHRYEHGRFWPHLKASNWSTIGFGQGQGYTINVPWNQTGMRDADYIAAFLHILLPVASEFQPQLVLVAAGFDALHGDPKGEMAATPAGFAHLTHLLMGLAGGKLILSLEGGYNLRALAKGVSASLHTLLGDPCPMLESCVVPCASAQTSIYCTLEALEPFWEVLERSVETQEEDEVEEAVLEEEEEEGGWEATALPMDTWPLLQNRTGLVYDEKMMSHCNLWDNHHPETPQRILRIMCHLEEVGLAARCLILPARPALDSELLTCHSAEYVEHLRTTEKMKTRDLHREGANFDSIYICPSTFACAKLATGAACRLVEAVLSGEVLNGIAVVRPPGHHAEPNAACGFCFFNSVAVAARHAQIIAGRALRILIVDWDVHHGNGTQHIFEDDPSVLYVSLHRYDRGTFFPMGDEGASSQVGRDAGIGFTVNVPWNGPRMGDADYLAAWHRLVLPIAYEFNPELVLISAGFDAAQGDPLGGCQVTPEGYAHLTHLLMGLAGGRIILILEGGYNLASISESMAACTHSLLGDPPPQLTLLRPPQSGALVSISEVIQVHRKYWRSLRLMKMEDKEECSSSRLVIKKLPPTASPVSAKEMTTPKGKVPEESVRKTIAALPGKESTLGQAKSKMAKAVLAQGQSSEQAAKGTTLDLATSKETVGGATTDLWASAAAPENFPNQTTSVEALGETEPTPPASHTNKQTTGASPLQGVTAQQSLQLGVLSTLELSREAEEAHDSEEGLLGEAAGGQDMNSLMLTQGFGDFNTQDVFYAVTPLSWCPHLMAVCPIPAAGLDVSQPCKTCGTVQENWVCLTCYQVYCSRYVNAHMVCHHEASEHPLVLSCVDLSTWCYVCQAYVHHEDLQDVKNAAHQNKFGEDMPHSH
Assay: acetylated tubulin immunohistochemistry in brain sections of treated Smo/Smo mice (readout of HDAC6 inhibition in vivo)
Type: cell-based

Structure (SMILES): CN1CCc2c(c3ccccc3n2Cc2ccc(C(=O)NO)cc2)C1 [Tubastatin A]
- acetylated tubulin immunohistochemistry in brain sections of treated Smo/Smo mic: although tubulin acetylation as a measure for HDAC6 inhibition was increased (Fig. S4)
